We go through 15 compounds from patent publication US20170334927A1 (Shanghai Sun-sail Pharmaceutical Science & Technology Co., …, priority 2014, published 2017).

Common to all, as to experiment: microbe, parasite or virus in culture
Common to all, as to format: cell-based

For test [1], the system named is drug-resistant Mycobacterium tuberculosis 246 (streptomycin-resistant). The following applies: for MIC: Mycobacterium tuberculosis, read-out: MIC, drug-resistant bacterium 246 (S single-resistant); for MIC value, times of that of the control drug PA-824, strain 246: relative to PA-824.
Test [2] has as its system drug-resistant Mycobacterium tuberculosis 242 (isoniazid-resistant). The following applies: for MIC: Mycobacterium tuberculosis, read-out: MIC, drug-resistant bacterium 242 (H single-resistant); for MIC value, times of that of the control drug PA-824, strain 242: relative to PA-824.
For test [3], the system named is drug-resistant Mycobacterium tuberculosis 261 (rifampicin-resistant). Particulars: for MIC: Mycobacterium tuberculosis, read-out: MIC, drug-resistant bacterium 261 (R single-resistant); for MIC value, times of that of the control drug PA-824, strain 261: relative to PA-824.

Values after ≈ are worked out from the molar mass of the structure shown.

Turning to `N#CC1(c2ccc(OC(F)(F)F)cc2)CCN(c2ncc(CN[C@@H]3COc4nc([N+](=O)[O-])cn4C3)cn2)CC1` [Compound 24, (S)-1-(5-(((7-nitro-3,4-dihydro-2H-imidazo[2,1-b][1,3]oxazin-3-yl)amino)methyl)pyrimidin-2-yl)-4-(4-(trifluoromethoxy)phenyl)piperidine-4-carbonitrile], in test [1], the MIC was found to be 3.9 ng/mL (≈ 0.00716 µM) and the “MIC value, times of that of the control drug PA-824, strain 246” value (“MIC value, times of that … strain 246” below) worked out at 128 times. Besides, in test [2], the MIC is 3.9 ng/mL (≈ 0.00716 µM) and the “MIC value, times of that of the control drug PA-824, strain 242” value (“MIC value, times of that … strain 242” below) came out at 256 times. For the same compound, in test [3], the MIC worked out at 3.9 ng/mL (≈ 0.00716 µM) and the “MIC value, times of that of the control drug PA-824, strain 261” value (“MIC value, times of that … strain 261” below) is 128 times.
`O=[N+]([O-])c1cn2c(n1)OC[C@@H](NCc1cnc(N3CCN(c4ccc(OC(F)(F)F)cc4)CC3)nc1)C2` [Compound 18]: in test [1], the MIC was 7.8 ng/mL (≈ 0.015 µM) and the “MIC value, times of that … strain 246” value was found to be 64 times. In addition, in test [2], the MIC stood at 7.8 ng/mL (≈ 0.015 µM) and the “MIC value, times of that … strain 242” value worked out at 128 times. In test [3], the MIC came out at 7.8 ng/mL (≈ 0.015 µM) and the “MIC value, times of that … strain 261” value is given as 64 times.
As to `CC1CN(c2ccc(OC(F)(F)F)cc2)CCN1c1ncc(CN[C@@H]2COc3nc([N+](=O)[O-])cn3C2)cn1` (stereo partly drawn) [Compound 20, (3S)—N-((6-(2-methyl-4-(4-(trifluoromethoxy)phenyl)piperazin-1-yl)pyrimidin-3-yl)methyl)-7-nitro-3,4-dihydro-2H-imidazo[2,1-b][1,3]oxazin-3-amine], in test [1], the MIC turned out to be 1.95 ng/mL (≈ 0.00365 µM) and the “MIC value, times of that … strain 246” value came to 256 times. In test [2], the MIC was determined as 1.95 ng/mL (≈ 0.00365 µM) and the “MIC value, times of that … strain 242” value stood at 512 times. Further, in test [3], the MIC was 1.95 ng/mL (≈ 0.00365 µM) and the “MIC value, times of that … strain 261” value came to 256 times.
Turning to `O=[N+]([O-])c1cn2c(n1)OC[C@@H](NCc1ccc(N3CCN(c4ccc(OC(F)(F)F)cc4)CC3)nc1)C2` [Compound 4, (S)-2-nitro-N-((6-(4-(4-(trifluoromethoxy)phenyl)piperazin-1-yl)pyrid-3-yl)methyl)-6,7-dihydro-5H-imidazo[2,1-b][1,3]oxazin-6-amine], in test [1], the MIC worked out at 1.95 ng/mL (≈ 0.00375 µM) and the “MIC value, times of that … strain 246” value came to 256 times. In test [2], the MIC was determined as 1.95 ng/mL (≈ 0.00375 µM) and the “MIC value, times of that … strain 242” value was 512 times. Also, in test [3], the MIC turned out to be 1.95 ng/mL (≈ 0.00375 µM) and the “MIC value, times of that … strain 261” value is listed as 256 times.
Take `O=[N+]([O-])c1cn2c(n1)OC[C@@H](NCc1ccc(N3CCC(Oc4ccc(OC(F)(F)F)cc4)CC3)nc1)C2` [Compound 1, (S)-2-nitro-N-((6-(4-(4-(trifluoromethoxy)phenoxy)piperidin-1-yl)pyrid-3-yl)methyl)-6,7-dihydro-5H-imidazo[2,1-b][1,3]oxazin-6-amine]: in test [1], the MIC amounted to 7.8 ng/mL (≈ 0.0146 µM) and the “MIC value, times of that … strain 246” value worked out at 64 times. In test [2], the MIC amounted to 7.8 ng/mL (≈ 0.0146 µM) and the “MIC value, times of that … strain 242” value is reported as 128 times. Besides, in test [3], the MIC is 7.8 ng/mL (≈ 0.0146 µM) and the “MIC value, times of that … strain 261” value came to 64 times.
For the compound `Cc1nc(N2CCN(c3ccc(OC(F)(F)F)cc3)CC2)ncc1CN[C@@H]1COc2nc([N+](=O)[O-])cn2C1` [Compound 36], in test [1], the MIC was 7.8 ng/mL (≈ 0.0146 µM) and the “MIC value, times of that … strain 246” value was 64 times. In test [2], the MIC was 7.8 ng/mL (≈ 0.0146 µM) and the “MIC value, times of that … strain 242” value worked out at 128 times. Moreover, in test [3], the MIC is 7.8 ng/mL (≈ 0.0146 µM) and the “MIC value, times of that … strain 261” value is given as 64 times.
With `CC1CN(c2ncc(CN[C@@H]3COc4nc([N+](=O)[O-])cn4C3)cn2)CCN1c1ccc(OC(F)(F)F)cc1` (stereo partly drawn) [Compound 19], in test [1], the MIC was determined as 7.8 ng/mL (≈ 0.0146 µM) and the “MIC value, times of that … strain 246” value was determined as 64 times. Moreover, in test [2], the MIC worked out at 7.8 ng/mL (≈ 0.0146 µM) and the “MIC value, times of that … strain 242” value is 128 times. Further, in test [3], the MIC came to 7.8 ng/mL (≈ 0.0146 µM) and the “MIC value, times of that … strain 261” value turned out to be 64 times.
Take `O=[N+]([O-])c1cn2c(n1)OC[C@@H](NCc1ccc(N3C4CCC3CC(Oc3ccc(OC(F)(F)F)cc3)C4)nc1)C2` (stereo partly drawn) [Compound 14, (6S)-2-nitro-N-((6-(3-(4-(trifluoromethoxy)phenoxy)-8-azabicyclo[3.2.1]octan-8-yl)pyrid-3-yl)methyl)-6,7-dihydro-5H-imidazo[2,1-b][1,3]oxazin-6-amine]: the MIC in test [1] was determined as 7.8 ng/mL (≈ 0.0139 µM); in test [2], 15.6 ng/mL (≈ 0.0278 µM); in test [3], 7.8 ng/mL (≈ 0.0139 µM).
As for `O=[N+]([O-])c1cn2c(n1)OC[C@@H](NCc1cnc(N3CCN(c4ccc(C(F)(F)F)cc4)CC3)nc1)C2` [Compound 31, (S)-2-nitro-N-((2-(4-(4-(trifluoromethyl)phenyl)piperazin-1-yl)pyrimidin-5-yl)methyl)-6,7-dihydro-5H-imidazo[2,1-b][1,3]oxazin-6-amine], the MIC in test [1], in test [2] and in test [3] was 7.8 ng/mL (≈ 0.0155 µM) throughout.
`N#Cc1nc(N2CCN(c3ccc(OC(F)(F)F)cc3)CC2)ncc1CN[C@@H]1COc2nc([N+](=O)[O-])cn2C1` [Compound 40, (S)-5-(((2-nitro-6,7-dihydro-5H-imidazo[2,1-b][1,3]oxazin-6-yl)amino)methyl)-2-(4-(4-(trifluoromethoxy)phenyl)piperazin-1-yl)pyrimidine-4-carbonitrile]: in test [1], the MIC is 7.8 ng/mL (≈ 0.0143 µM) and the “MIC value, times of that … strain 246” value was determined as 64 times. Moreover, in test [2], the MIC is 7.8 ng/mL (≈ 0.0143 µM) and the “MIC value, times of that … strain 242” value is given as 128 times. In test [3], the MIC is 7.8 ng/mL (≈ 0.0143 µM) and the “MIC value, times of that … strain 261” value is 64 times.
As for `CC1CN(c2ccc(OC(F)(F)F)cc2)CCN1c1ccc(CN[C@@H]2COc3nc([N+](=O)[O-])cn3C2)cn1` (stereo partly drawn) [Compound 6, (3S)—N-((6-(2-methyl-4-(4-(trifluoromethoxy)phenyl)piperazin-1-yl)pyrid-3-yl)methyl)-7-nitro-3,4-dihydro-2H-imidazo[2,1-b][1,3]oxazin-3-amine], the MIC worked out at 7.8 ng/mL (≈ 0.0146 µM) in test [1], 15.6 ng/mL (≈ 0.0292 µM) in test [2] and 7.8 ng/mL (≈ 0.0146 µM) in test [3].
Consider `N#CC1(c2ccc(OC(F)(F)F)cc2)CCN(c2ccc(CN[C@@H]3COc4nc([N+](=O)[O-])cn4C3)cn2)CC1` [Compound 10, (S)-1-(5-(((7-nitro-3,4-dihydro-2H-imidazo[2,1-b][1,3]oxazin-3-yl)amino)methyl)pyridin-2-yl)-4-(4-(trifluoromethoxy)phenyl)piperidine-4-carbonitrile], for which, in test [1], the MIC stood at 1.95 ng/mL (≈ 0.00359 µM) and the “MIC value, times of that … strain 246” value came out at 256 times. In test [2], the MIC came to 1.95 ng/mL (≈ 0.00359 µM) and the “MIC value, times of that … strain 242” value was 512 times. For the same compound, in test [3], the MIC is 1.95 ng/mL (≈ 0.00359 µM) and the “MIC value, times of that … strain 261” value is 256 times.
Regarding `O=[N+]([O-])c1cn2c(n1)OC[C@@H](OCc1ccc(OC(F)(F)F)cc1)C2` [PA-824, reference compound], the MIC in test [1] worked out at 500 ng/mL (≈ 1.39 µM); in test [2], 1000 ng/mL (≈ 2.78 µM); in test [3] it was 500 ng/mL (≈ 1.39 µM).
For `CN(Cc1cnc(N2CCN(c3ccc(OC(F)(F)F)cc3)CC2)nc1)[C@@H]1COc2nc([N+](=O)[O-])cn2C1` [Compound 44, (S)—N-methyl-2-nitro-N-((2-(4-(4-(trifluoromethoxy)phenyl)piperazin-1-yl)pyrimidin-5-yl)methyl)-6,7-dihydro-5H-imidazo[2,1-b][1,3]oxazin-6-amine], in test [1], the MIC turned out to be 1.95 ng/mL (≈ 0.00365 µM) and the “MIC value, times of that … strain 246” value is given as 256 times. In addition, in test [2], the MIC is 1.95 ng/mL (≈ 0.00365 µM) and the “MIC value, times of that … strain 242” value worked out at 512 times. In test [3], the MIC worked out at 1.95 ng/mL (≈ 0.00365 µM) and the “MIC value, times of that … strain 261” value worked out at 256 times.
As for `CC1CN(c2ccc(CN[C@@H]3COc4nc([N+](=O)[O-])cn4C3)cn2)CCN1c1ccc(OC(F)(F)F)cc1` (stereo partly drawn) [Compound 5, (3S)—N-((6-(3-methyl-4-(4-(trifluoromethoxy)phenyl)piperazin-1-yl)pyrid-3-yl)methyl)-7-nitro-3,4-dihydro-2H-imidazo[2,1-b][1,3]oxazin-3-amine], the MIC in test [1] is 1.95 ng/mL (≈ 0.00366 µM); in test [2], 3.9 ng/mL (≈ 0.00731 µM); in test [3], 1.95 ng/mL (≈ 0.00366 µM).
